{"source": "patent US11203600B2", "about": "(Denali Therapeutics Inc., priority 2017, dated 2021)"}
{"target": "GST-hRIPK1 (8-327) (Homo sapiens (Human), UniProt Q13546)", "sequence (Q13546 8-327)": "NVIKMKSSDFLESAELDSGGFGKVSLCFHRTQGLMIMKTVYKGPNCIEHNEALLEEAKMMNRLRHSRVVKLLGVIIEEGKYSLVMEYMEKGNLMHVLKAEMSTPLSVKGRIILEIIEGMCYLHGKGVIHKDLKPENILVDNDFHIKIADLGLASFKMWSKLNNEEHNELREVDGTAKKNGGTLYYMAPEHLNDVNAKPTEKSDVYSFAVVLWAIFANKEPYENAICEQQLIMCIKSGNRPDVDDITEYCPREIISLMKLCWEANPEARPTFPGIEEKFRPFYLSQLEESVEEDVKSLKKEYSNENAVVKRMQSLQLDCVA", "assay": "Fluorescent Polarization Binding (FP Binding) assay, RIPK1", "settings": "10 nM GST-hRIPK1 (8-327), 5 nM fluorescent-labeled ligand, RT, 30 min, mean of at least two independent experiments", "protocol": "(§1) Fluorescent Polarization Binding (FP Binding) assay (Berger S. B. et al. (2015) Cell Death Discovery, 1: 15009; Maki J. L. et al. (2012) Anal Biochem., 427(2): 164-174) was performed in polystyrene low volume 384-well black plate, at RT in a final volume of 10.1 μl/well using 10 nM of GST-hRIPK1 (8-327) enzyme and 5 nM of fluorescent-labeled ligand (14-(2-{[3-({2-{[4-(cyanomethyl)phenyl]amino]-6-[(5-cyclopropyl-1H-pyrazol-3-yl)amino]-4-pyrimidinyl}amino) propyl}amino}-2-oxoethyl)-16,16,18,18-tetramethyl-6,7,7a,8a,9,10,16,18-octahydrobenzo [2″,3″]indolizino[8″,7″:5′,6′]pyrano [3′,2′:3,4]pyrido[1,2-a]indo1-5-ium-2-sulfonate.\n(§2) Test compounds were serially diluted in DMSO at 100 fold final concentrations in the assay (1% DMSO final). In each well of a 384-well Plate were dispensed 0.1 μL of compound solution (or DMSO for controls) followed by 5 μL of GST-hRIPK1 (8-327) at twice the final concentrations in assay buffer (50 mM HEPES pH 7.5, 10 mM NaCl, 50 mM MgCl2, 0.02% CHAPS, 0.5 mM DTT and 0.01% Pluronic F127). For negative control the enzyme addition was replaced by assay buffer only.\n(§3) After addition of 5 μL of fluorescentlabeled ligand at twice the final concentrations in assay buffer, the plate was incubated at RT for […]. At the end, the binding was measured as FP value with the Envision (PerkinElmer) plate reader using filter for an excitation λ=531 nm FP and an emission λ=595 nm FP (S & P-pol). GST-hRIPK1 (8-327) enzyme was produced via Baculovirus expression.\n(§4) Test compound inhibition was expressed as percent inhibition of internal assay controls. For concentration response curves, normalized data is fit and IC50 determined using XL-fit (IDBS) for Excel. The IC50 values were averaged to determine a mean value, for a minimum of two independent experiments. Results are shown in Table 2 (RIPK1 IC50) values: +++=0.1 nM<IC50<100 nM; ++=100 nM<IC50<1 μM; +=1 μM<IC50).", "units": {"IC50": "nM"}}
{"compound": "O=C(C1CC(F)(F)C1)N1CCOc2ccccc2C1", "note": "[Example 1, (3,3-difluorocyclobutyl)(2,3-dihydrobenzo[f][1,4]oxazepin-4(5H)-yl)methanone]", "IC50": "> 1000"}
{"compound": "CC(C)(C(=O)N1CCOc2c(C#N)ccc(F)c2C1)C(F)F", "note": "[Example 2, 4-(3,3-difluoro-2,2-dimethyl-propanoyl)-6-fluoro-3,5-dihydro-2H-1,4-benzoxazepine-9-carbonitrile]", "IC50": "0.1 to 100"}
{"compound": "CC(C)(C)C(=O)N1CCCc2ccccc2C1", "note": "[Example 3, 2,2-dimethyl-1-(1,3,4,5-tetrahydro-2-benzazepin-2-yl)propan-1-one]", "IC50": "100 to 1000"}
{"compound": "CCC(C)(C)C(=O)N1CCCc2ccccc2C1", "note": "[Example 4, 2,2-dimethyl-1-(1,3,4,5-tetrahydro-2-benzazepin-2-yl)butan-1-one]", "IC50": "100 to 1000"}
{"compound": "CC(C)(C(=O)N1CCCc2ccccc2C1)C(F)F", "note": "[Example 5, 3,3-difluoro-2,2-dimethyl-1-(1,3,4,5-tetrahydro-2-benzazepin-2-yl)propan-1-one]", "IC50": "100 to 1000"}
{"compound": "CCC(C)(C)C(=O)N1CCOc2ccccc2C1", "note": "[Example 6, 1-(3,5-dihydro-2H-1,4-benzoxazepin-4-yl)-2,2-dimethyl-butan-1-one]", "IC50": "0.1 to 100"}
{"compound": "CC(C)(C(=O)N1CCOc2ccccc2C1)C(F)F", "note": "[Example 7, 1-(3,5-dihydro-2H-1,4-benzoxazepin-4-yl)-3,3-difluoro-2,2-dimethyl-propan-1-one]", "IC50": "0.1 to 100"}
{"compound": "O=C(C1CCN(c2ncc(F)cn2)CC1)N1CCOc2ccccc2C1", "note": "[Example 8, 3,5-dihydro-2H-1,4-benzoxazepin-4-yl-[1-(5-fluoropyrimidin-2-yl)-4-piperidyl]methanone]", "IC50": "0.1 to 100"}
{"compound": "CC1(C(=O)N2CCOc3ccccc3C2)CCN(c2ncc(F)cn2)CC1", "note": "[Example 9, 3,5-dihydro-2H-1,4-benzoxazepin-4-yl-[1-(5-fluoropyrimidin-2-yl)-4-methyl-4-piperidyl]methanone]", "IC50": "0.1 to 100"}
{"compound": "CC(C)(C(=O)N1CCOc2ccc(Cl)cc2C1)C(F)F", "note": "[Example 10, 1-(7-chloro-2,3-dihydrobenzo[f][1,4]oxazepin-4(5H)-yl)-3,3-difluoro-2,2-dimethylpropan-1-one]", "IC50": "100 to 1000"}
{"compound": "Cc1ccc2c(c1)CN(C(=O)C(C)(C)C(F)F)CCO2", "note": "[Example 11, 3,3-difluoro-2,2-dimethyl-1-(7-methyl-2,3-dihydrobenzo[f][1,4]oxazepin-4(5H)-yl)propan-1-one]", "IC50": "100 to 1000"}
{"compound": "COc1ccc2c(c1)OCCN(C(=O)C(C)(C)C(F)F)C2", "note": "[Example 12, 3,3-difluoro-1-(8-methoxy-3,5-dihydro-2H-14-benzoxazepin-4-yl)-2,2-dimethyl-propan-1-one]", "IC50": "100 to 1000"}
{"compound": "CC(C)(C(=O)N1CCOc2c(F)cccc2C1)C(F)F", "note": "[Example 13, 3,3-difluoro-1-(9-fluoro-2,3-dihydrobenzo[f][1,4]oxazepin-4(5H)-yl)-2,2-dimethylpropan-1-one]", "IC50": "0.1 to 100"}
{"compound": "CC(C)(CC#N)C(=O)N1CCOc2c(F)cccc2C1", "note": "[Example 14, 4-(9-fluoro-3,5-dihydro-2H-1,4-benzoxazepin-4-yl)-3,3-dimethyl-4-oxo-butanenitrile]", "IC50": "0.1 to 100"}
{"compound": "CC(C)(C(=O)N1CCOc2c(F)cccc2C1)C1CC1", "note": "[Example 15, 2-cyclopropyl-1-(9-fluoro-3,5-dihydro-2H-1,4-benzoxazepin-4-yl)-2-methyl-propan-1-one]", "IC50": "0.1 to 100"}
{"compound": "CC(C)(CC(F)F)C(=O)N1CCOc2c(F)cccc2C1", "note": "[Example 16, 4,4-difluoro-1-(9-fluoro-3,5-dihydro-2H-1,4-benzoxazepin-4-yl)-2,2-dimethyl-butan-1-one]", "IC50": "0.1 to 100"}
{"compound": "CC(C(=O)N1CCOc2c(F)cccc2C1)C(F)(F)F", "note": "(centres unmarked) [Example 17, 3,3,3-trifluoro-1-(9-fluoro-3,5-dihydro-2H-1,4-benzoxazepin-4-yl)-2-methyl-propan-1-one]", "IC50": "> 1000"}
{"compound": "CC(F)(F)C(C)(C)C(=O)N1CCOc2c(F)cccc2C1", "note": "[Example 18, 3,3-difluoro-1-(9-fluoro-3,5-dihydro-2H-1,4-benzoxazepin-4-yl)-2,2-dimethyl-butan-1-one]", "IC50": "0.1 to 100"}
{"compound": "O=C(C(C1CC1)C1CC1)N1CCOc2c(F)cccc2C1", "note": "[Example 19, 2,2-dicyclopropyl-1-(9-fluoro-3,5-dihydro-2H-1,4-benzoxazepin-4-yl)ethanone]", "IC50": "> 1000"}
{"compound": "CC(C)(C(=O)N1CCOc2cccc(F)c2C1)C(F)F", "note": "[Example 20, 3,3-difluoro-1-(6-fluoro-2,3-dihydrobenzo[f][1,4]oxazepin-4(5H)-yl)-2,2-dimethylpropan-1-one]", "IC50": "0.1 to 100"}
{"compound": "CC1COc2ccccc2CN1C(=O)C(C)(C)C(F)F", "note": "(centres unmarked) [Example 21, 3,3-difluoro-2,2-dimethyl-1-(3-methyl-2,3-dihydrobenzo[f][1,4]oxazepin-4(5H)-yl)propan-1-one]", "IC50": "0.1 to 100"}
{"compound": "CC(C)(C(=O)N1CCOc2c(C#N)cc(F)cc2C1)C(F)F", "note": "[Example 22, 4-(3,3-difluoro-2,2-dimethyl-propanoyl)-7-fluoro-3,5-dihydro-2H-1,4-benzoxazepine-9-carbonitrile]", "IC50": "0.1 to 100"}
{"compound": "CC(C)(C(=O)N1CCOc2c(C#N)cccc2C1)C(F)F", "note": "[Example 23, 4-(3,3-difluoro-2,2-dimethyl-propanoyl)-3,5-dihydro-2H-1,4-benzoxazepine-9-carbonitrile]", "IC50": "0.1 to 100"}
{"compound": "CC1(C(=O)N2CCOc3c(C#N)cccc3C2)CCN(c2ncc(F)cn2)CC1", "note": "[Example 24, 4-[1-(5-fluoropyrimidin-2-yl)-4-methyl-piperidine-4-carbonyl]-3,5-dihydro-2H-1,4-benzoxazepine-9-carbonitrile]", "IC50": "0.1 to 100"}
{"compound": "CC(C)(CC#N)C(=O)N1CCOc2c(C#N)cccc2C1", "note": "[Example 25, 4-(3-cyano-2,2-dimethyl-propanoyl)-3,5-dihydro-2H-1,4-benzoxazepine-9-carbonitrile]", "IC50": "0.1 to 100"}
{"compound": "CC(C)(C(=O)N1CCOc2c(C#N)cccc2C1)C1CC1", "note": "[Example 26, 4-(2-cyclopropyl-2-methyl-propanoyl)-3,5-dihydro-2H-1,4-benzoxazepine-9-carbonitrile]", "IC50": "0.1 to 100"}
{"compound": "CC(C)(C(=O)N1CCOc2cccc(C#N)c2C1)C(F)F", "note": "[Example 27, 4-(3,3-difluoro-2,2-dimethyl-propanoyl)-3,5-dihydro-2H-1,4-benzoxazepine-6-carbonitrile]", "IC50": "> 1000"}
{"compound": "CC(C)(C(=O)N1CCOc2cc(C#N)ccc2C1)C(F)F", "note": "[Example 28, 4-(3,3-difluoro-2,2-dimethyl-propanoyl)-3,5-dihydro-2H-1,4-benzoxazepine-8-carbonitrile]", "IC50": "100 to 1000"}
{"compound": "CC(C)(C(=O)N1CCOc2c(C#N)cncc2C1)C(F)F", "note": "[Example 29, 4-(3,3-difluoro-2,2-dimethyl-propanoyl)-3,5-dihydro-2H-pyrido[3,4-f][1,4]oxazepine-9-carbonitrile]", "IC50": "0.1 to 100"}
{"compound": "CC(C)(C(=O)N1CCOc2c(C#N)cncc2C1)C1CC1", "note": "[Example 30, 4-(2-cyclopropyl-2-methyl-propanoyl)-3,5-dihydro-2H-pyrido[3,4-f][1,4]oxazepine-9-carbonitrile]", "IC50": "0.1 to 100"}
{"compound": "CC(C)(CC#N)C(=O)N1CCOc2c(C#N)cncc2C1", "note": "[Example 31, 4-(3-cyano-2,2-dimethyl-propanoyl)-3,5-dihydro-2H-pyrido[3,4-f][1,4]oxazepine-9-carbonitrile]", "IC50": "100 to 1000"}
{"target": "GST-hRIPK1 (8-327) (Homo sapiens (Human), UniProt Q13546)", "assay": "Fluorescent Polarization Binding (FP Binding) assay, RIPK1", "settings": "GST-hRIPK1 (8-327), mean of at least two independent experiments", "protocol": "as §1, §2, §3, §4", "units": {"IC50": "nM"}}
{"compound": "N#Cc1cncc2c1OCCN(C(=O)C1CCN(c3ncc(F)cn3)CC1F)C2", "note": "(single isomer, unassigned) [Example 305, 4-[3-Fluoro-1-(5-fluoropyrimidin-2-yl)piperidine-4-carbonyl]-3,5-dihydro-2H-pyrido[3,4-f][1,4]oxazepine-9-carbonitrile]", "IC50": "100 to 1000"}
{"compound": "N#Cc1cncc2c1OCCN(C(=O)C1CCN(c3ncc(F)cn3)CC1F)C2", "note": "(single isomer, unassigned) [Example 306, 4-[3-Fluoro-1-(5-fluoropyrimidin-2-yl)piperidine-4-carbonyl]-3,5-dihydro-2H-pyrido[3,4-f][1,4]oxazepine-9-carbonitrile]", "IC50": "0.1 to 100"}
{"compound": "N#Cc1cncc2c1OCCN(C(=O)C1CCN(c3ncc(F)cn3)CC1(F)F)C2", "note": "(single isomer, unassigned) [Example 307, 4-[3,3-Difluoro-1-(5-fluoropyrimidin-2-yl)piperidine-4-carbonyl]-3,5-dihydro-2H-pyrido[3,4-f][1,4]oxazepine-9-carbonitrile]", "IC50": "100 to 1000"}
{"compound": "N#Cc1cncc2c1OCCN(C(=O)C1CCN(c3ncc(F)cn3)CC1(F)F)C2", "note": "(single isomer, unassigned) [Example 308, 4-[3,3-Difluoro-1-(5-fluoropyrimidin-2-yl)piperidine-4-carbonyl]-3,5-dihydro-2H-pyrido[3,4-f][1,4]oxazepine-9-carbonitrile]", "IC50": "0.1 to 100"}
